Non-standard residues stand in square brackets, D forms with d. Residues, ends and D or L forms follow the SMILES beside them. *: point of attachment. Asu = N[C@@H](CCCCCC(=O)O)C(=O)O; NHOH = ON*

In this test the target is Mouse histone deacetylase. Format: biochemical. To be noted: enzyme from FM3A cells; [3H]acetyl histone; 37° C. 10 minutes. How it is done: In an enzyme system using a radio-labelled acetylated histone as a substrate, histone deacetylase enzyme inhibiting activity was evaluated. The basic conditions were in accordance with the method of Yoshida et al. (J. Biol. Chem., 265, 17174-17179, 1990).
Mouse histone deacetylase to be used was partially purified from FM3A cells. Cells were suspended in HDA buffer (15 mM potassium phosphate, 5% glycerol, 0.2 mM EDTA, pH 7.5), homogenized and centrifuged (35000×g, 10 min) to collect the nuclei which in turn were homogenized in the same buffer containing 1 M (NH4)2SO4. After ultrasonic disruption and centrifugation, the concentration of (NH4)2SO4 in the supernatant was increased to 3.5 M to precipitate deacetylase enzyme proteins. This precipitate was redissolved in HDA buffer, dialyzed against HDA buffer, applied to DEAE-cellulose column and eluted in NaCl gradient. Active fractions were used as a histone deacetylase enzyme solution.
As a substrate, [^3H]acetyl histone was used. In a culture solution of FM3A cells in the presence of 5 mM sodium n-butyrate, [^3H]acetate was added, followed by incubation for 30 minutes to radio-label the histone. The histone was prepared in a conventional manner and used as a substrate solution.
An assay was performed by adding a compound to be tested at a given concentration while using a no-addition control group, and by incubating the substrate solution and the enzyme solution at 37° C. for 10 minutes (reaction volume, 100 μl). The enzyme reaction was stopped by adding 10 μl of concentrated hydrochloric acid and the excised [^3H]acetate was extracted with ethyl acetate for radioactivity measurement. The inhibiting activity was expressed by a concentration at which the enzyme activity in the control group was inhibited by 50% (50% inhibiting concentration).

`CC[C@H](C)[C@@H]1NC(=O)[C@@H](Cc2ccc(OC)cc2)NC(=O)[C@H](CCCCCC(=O)NO)NC(=O)[C@H]2CCCN2C1=O` [HDA-31, cyclo(-L-Asu(NHOH)-D-Tyr(Me)-L-Ile-D-Pro-)] (cyclo([Asu](NHOH)[dY](Me)I[dP])) came in with an IC50 of 2.08 nM.

As usually defined, the IC50 is the point on the concentration scale where inhibition reaches its midpoint. Low readings indicate higher potency, high ones lower potency.
